The target of the assay is T1, human PPARγ (Homo sapiens, UniProt P37231).
T1 construct: 1.6 kb of fragment of the prepared plasmid pGEMT-hPPARg2 including human PPARγ gene; expressed in transfected cells; host or cells: CV-1 cells, transient transfection with pCI-hPPARg2, pCI-hRXRa and the reporter pGL3-PPRE3-TK
T1 sequence (P37231 1-505): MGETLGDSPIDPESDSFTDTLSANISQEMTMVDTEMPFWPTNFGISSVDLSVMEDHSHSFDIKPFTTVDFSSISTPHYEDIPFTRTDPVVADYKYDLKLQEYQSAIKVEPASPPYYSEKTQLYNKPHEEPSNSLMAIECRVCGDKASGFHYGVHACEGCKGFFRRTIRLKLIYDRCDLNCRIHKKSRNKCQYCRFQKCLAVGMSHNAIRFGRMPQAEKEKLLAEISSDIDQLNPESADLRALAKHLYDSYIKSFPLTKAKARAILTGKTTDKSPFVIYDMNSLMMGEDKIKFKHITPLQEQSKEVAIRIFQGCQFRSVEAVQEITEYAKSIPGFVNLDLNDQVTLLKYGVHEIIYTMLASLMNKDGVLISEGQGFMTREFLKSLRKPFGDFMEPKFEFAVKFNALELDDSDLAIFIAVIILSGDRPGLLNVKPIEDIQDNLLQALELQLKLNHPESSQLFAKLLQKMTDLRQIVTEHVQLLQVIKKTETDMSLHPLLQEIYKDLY
T1 sequence (P19793 1-462 partner): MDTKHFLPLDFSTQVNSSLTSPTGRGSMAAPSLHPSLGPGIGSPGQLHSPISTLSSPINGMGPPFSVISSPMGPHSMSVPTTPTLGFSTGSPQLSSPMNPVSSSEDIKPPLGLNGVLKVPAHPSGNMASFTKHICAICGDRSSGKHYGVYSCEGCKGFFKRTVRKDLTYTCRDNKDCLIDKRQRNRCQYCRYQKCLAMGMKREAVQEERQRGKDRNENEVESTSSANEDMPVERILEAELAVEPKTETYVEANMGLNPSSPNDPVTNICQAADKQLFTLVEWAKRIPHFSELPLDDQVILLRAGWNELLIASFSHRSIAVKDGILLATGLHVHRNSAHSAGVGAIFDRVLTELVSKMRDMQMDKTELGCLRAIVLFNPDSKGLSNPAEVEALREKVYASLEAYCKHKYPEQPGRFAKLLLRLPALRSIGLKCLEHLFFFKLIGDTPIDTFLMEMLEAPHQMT
In words: Human PPARγ antagonist assay (luciferase reporter in transfected CV-1 cells). The class given is cell-based. The conditions noted are these: CV-1 cells expressing human PPARγ and RXRα with reporter plasmid; pioglitazone 1 μM as stimulant; 24 hours; read-out: Human PPARγ antagonist activities, Inhibition IC50. Here is the method: CV-1 cells (96 well plate), where human PPARγ and RXRα has expressed in the transient transfection of reporter plasmid (see reference 5a) were washed once with PBS (100 μL/well), and then supplemented with 100 μL/well […], as well as pioglitazone (not limited to pioglitazone shown as an example, but may be any PPARγ agonist) at a final concentration of 1 μM as a stimulant were added, and incubated in a 5% CO2 incubator at 37° C. for 24 hours. After removing the medium, the CV-1 cells were washed once with PBS (100 μL/well), and supplemented with 60 μL/well of 1× Passive Lysis Buffer (manufactured by Promega Corporation). The CV-1 cells were incubated at room temperature for 30 minutes, stirred, and then by using Dual-Luciferase Reporter Assay System (manufactured by Promega Corporation), luciferase activities of firefly and renilla were measured using 1420 ARVO Multilabel Counter (manufactured by Wallac Oy). Also, the same experiments as that described above were respectively carried out for the cases where only the above-mentioned stimulants (100 nM, 1 μM, 10 μM) were used, where only the above-mentioned test compounds were used, or where neither was used (nonsupplemented), and luciferase activities of firefly and renilla were measured. Values corrected by dividing the firefly luciferase activities by the renilla luciferase activities were calculated as specific activities and used for evaluations.
Human PPARγ2 antagonist activities of the test compounds were evaluated by using a percentage (inhibition) where the specific activity in case only […] was added is regarded as 0% and the specific activity in case the test compound and the stimulant were not added is regarded as 100%. Moreover, the concentration of the test compound indicating the inhibition rate of 50% was calculated as the IC50 value. Also, human PPARγ2 agonist activities of the test compounds were evaluated by using a percentage (activity) where the specific activity when nonsupplemented is regarded as 0% and the specific activity in case only 10 μM stimulant was added is regarded as 100%, from the specific activity in case only the test compound is used.
CV-1 cells were cultured in DMEM medium (manufactured by Invitrogen Corporation) including 10% fetal bovine serum (manufactured by Dainippon Pharmaceutical Co., Ltd.) in 225T-Flask (manufactured by Corning Costar). The cells were detached by 0.5 g/L trypsin-0.2 g/L EDTA (ethylene diamine tetra-acetic acid) (manufactured by Invitrogen Corporation), and then suspended in the DMEM medium including 10% fetal bovine serum to a cell concentration of 2×10^5 cells/mL. Thereafter, the cells were seeded into 96 well plate at 2×10^4 cells/0.1 mL/well, incubated in the 5% CO2 incubator at 37° C. overnight, and then the plasmids prepared by the above-mentioned reference 1a, reference 3a, and reference 4a were transfected into cells by using a lipofectamine reagent (manufactured by Invitrogen Corporation) according to the attached manual.
Namely, after CV-1 cells were cultured overnight, the cells were washed with PBS (100 μL/well). Thereafter the cells were incubated for 5 hours at 37° C./5% CO2 in the MEM medium (manufactured by Invitrogen Corporation) including 430 ng/mL of human PPARγ expression plasmid (pCI-hPPARg2) prepared by the reference 1a, 430 ng/mL of human RXRα expression plasmid (pCI-hRXRa) prepared by the reference 3a, and 140 ng/mL of the reporter plasmid (pGL3-PPRE3-TK) prepared by the reference 4a, 10 ng/mL of phRL-TK vector (manufactured by Promega Corporation) and 2 μL/mL of lipofectamine.
For orientation: In a reporter assay the amount or activity of a reporter protein is the signal.

This passage reports IC50 results from patent US8329913B2, “Carbazole derivative, solvate thereof, or pharmaceutically acceptable salt thereof” (Zeria Pharmaceutical Co., Ltd., priority 2004, dated 2012).

In general, IC50 refers to the point on the concentration scale where inhibition reaches its midpoint. Consider `COc1cc(Cn2c3ccccc3c3c(Oc4ccccc4C(=O)O)cccc32)ccc1OCc1nc(-c2ccccc2)oc1C` [Example 47, sodium 2-{9-[3-methoxy-4-((5-methyl-2-phenyloxazole-4-yl)methoxy)-benzyl]-9H-carbazole-4-yloxy}benzoate], for which the IC50 turned out to be 30 nM.
Take `COc1cc(Cn2c3ccccc3c3c(O[C@@H](C)C(=O)O)cccc32)ccc1OCc1nc(-c2ccccc2)oc1C` [Example 39, sodium (S)-2-{9-[3-methoxy-4-((5-methyl-2-phenyl-oxazole-4-yl)methoxy)-benzyl]-9H-carbazole-4-yloxy}propionate]: the IC50 amounted to 617 nM.
As for `COc1cc(Cn2c3ccccc3c3c(OCC(=O)O)cccc32)ccc1OCc1nc(-c2ccccc2)oc1C` [Example 1, 2-{9-[3-methoxy-4-((5-methyl-2-phenyl-oxazole-4-yl)methoxy)-benzyl]-9H-carbazole-4-yloxy}acetic acid], the figure is 3150 nM.
As for `COc1cc(Cn2c3ccccc3c3c(OCCCC(=O)O)cccc32)ccc1OCc1nc(-c2ccccc2)oc1C` [Example 12, 4-{9-[3-methoxy-4-((5-methyl-2-phenyl-oxazole-4-yl)methoxy)-benzyl]-9H-carbazole-4-yloxy}butyric acid], the figure is 725 nM; as for `COc1cc(Cn2c3ccccc3c3c(OCc4ccc(C(=O)O)cc4)cccc32)ccc1OCc1nc(-c2ccccc2)oc1C` [Example 46, sodium 4-((9-(4-((5-methyl-2-phenyloxazole-4-yl)methoxy)-3-methoxybenzyl)-9H-carbazole-5-yloxy)methyl)benzoate], 992 nM; as for `COc1cc(Cn2c3ccccc3c3c(OCCCCCC(=O)O)cccc32)ccc1OCc1nc(-c2ccccc2)oc1C` [Example 21, 6-{9-[3-methoxy-4-((5-methyl-2-phenyl-oxazole-4-yl)methoxy)-benzyl]-9H-carbazole-4-yloxy}caproic acid], 5060 nM.
The result for `COc1cc(Cn2c3ccccc3c3c(OC(C(=O)O)c4ccccc4)cccc32)ccc1OCc1nc(-c2ccccc2)oc1C` (single isomer, unassigned) [Example 50, sodium (+)-2-{9-[3-methoxy-4-((5-methyl-2-phenyl-oxazole-4-yl)methoxy)-benzyl]-9H-carbazole-4-yloxy}-2-phenylacetate] reads 471 nM; that for `COc1cc(Cn2c3ccccc3c3c(Oc4ccc(C(=O)O)cc4)cccc32)ccc1OCc1nc(-c2ccccc2)oc1C` [Example 49, sodium 4-{9-[3-methoxy-4-((5-methyl-2-phenyloxazole-4-yl)methoxy)-benzyl]-9H-carbazole-4-yloxy}benzoate], 1050 nM.
Take `COc1cc(Cn2c3ccccc3c3c(OC(C(=O)O)c4ccccc4)cccc32)ccc1OCc1nc(-c2ccccc2)oc1C` (racemic) [Example 26, (±)-2-{9-[3-methoxy-4-((5-methyl-2-phenyl-oxazole-4-yl)methoxy)-benzyl]-9H-carbazole-4-yloxy}-2-phenylacetic acid]: the IC50 amounted to 546 nM.
Regarding `CCCCC(Oc1cccc2c1c1ccccc1n2Cc1ccc(OCc2nc(-c3ccccc3)oc2C)c(OC)c1)C(=O)O` (racemic) [Example 17, (±)-2-{9-[3-methoxy-4-((5-methyl-2-phenyl-oxazole-4-yl)methoxy)-benzyl]-9H-carbazole-4-yloxy}caproic acid], the IC50 is 320 nM.
On to `COc1cc(Cn2c3ccccc3c3c(OCCC(C)C(=O)O)cccc32)ccc1OCc1nc(-c2ccccc2)oc1C` (single isomer, unassigned) [Example 53, sodium (+)-4-{9-[3-methoxy-4-((5-methyl-2-phenyl-oxazole-4-yl)methoxy)-benzyl]-9H-carbazole-4-yloxy}-2-methyl-butyrate], for which the IC50 stood at 382 nM.
As for `COc1cc(Cn2c3ccccc3c3c(OCC(C)(C)C(=O)O)cccc32)ccc1OCc1nc(-c2ccncc2)oc1C` [Example 35], the figure is 509 nM.
As for `COc1cc(Cn2c3ccccc3c3c(OCC(=O)O)cccc32)ccc1OCc1nc(-c2ccccc2)oc1C` [Example 29], the figure is 2460 nM; as for `CCC[C@H](Oc1cccc2c1c1ccccc1n2Cc1ccc(OCc2nc(-c3ccccc3)oc2C)c(OC)c1)C(=O)O` [Example 41, sodium (S)-2-{9-[3-methoxy-4-((5-methyl-2-phenyl-oxazole-4-yl)methoxy)-benzyl]-9H-carbazole-4-yloxy}valerate], 220 nM.
As for `COc1cc(Cn2c3ccccc3c3c(OC(C(=O)O)C(C)C)cccc32)ccc1OCc1nc(-c2ccccc2)oc1C` (racemic) [Example 10, (±)-2-{9-[3-methoxy-4-((5-methyl-2-phenyl-oxazole-4-yl)methoxy)-benzyl]-9H-carbazole-4-yloxy}-3-methyl-butyric acid], the figure is 400 nM; as for `COc1cc(Cn2c3ccccc3c3c(O[C@H](C(=O)O)C(C)C)cccc32)ccc1OCc1nc(-c2ccccc2)oc1C` [Example 40, sodium (S)-2-{9-[3-methoxy-4-((5-methyl-2-phenyl-oxazole-4-yl)methoxy)-benzyl]-9H-carbazole-4-yloxy}-3-methyl-butyrate], 308 nM; as for `COc1cc(Cn2c3ccccc3c3c(OC(C(=O)O)c4ccccc4)cccc32)ccc1OCc1nc(-c2ccccc2)oc1C` (racemic) [Example 36], 596 nM.
With `COc1cc(Cn2c3ccccc3c3c(OCCCC(=O)O)cccc32)ccc1OCc1nc(-c2ccccc2)oc1C` [Example 33], the IC50 stood at 1380 nM.
Turning to `COc1cc(Cn2c3ccccc3c3c(OC(C(=O)O)c4ccccc4)cccc32)ccc1OCc1nc(-c2ccccc2)oc1C` (single isomer, unassigned) [Example 51, sodium (−)-2-{9-[3-methoxy-4-((5-methyl-2-phenyl-oxazole-4-yl)methoxy)-benzyl]-9H-carbazole-4-yloxy}-2-phenylacetate], the concentration for half-maximal inhibition (IC50) worked out at 2190 nM.
As for `CC[C@@H](Oc1cccc2c1c1ccccc1n2Cc1ccc(OCc2nc(-c3ccccc3)oc2C)c(OC)c1)C(=O)O` [Example 42, sodium (R)-2-{9-[3-methoxy-4-((5-methyl-2-phenyl-oxazole-4-yl)methoxy)-benzyl]-9H-carbazole-4-yloxy}butyrate], the figure is 484 nM.
